In publication PMC9704608, “Anti-leishmanial physalins—Phytochemical investigation, in vitro evaluation against clinical and MIL-resistant L. tropica strains and in silico studies” (PLOS ONE, 2022):
In brackets after ≈: the same amount, converted by molar mass. Where two headings read alike, the source gives them in different places.

Experiments:
[1] = test system: BJ (human fibroblast) cells; experiment: Cytotoxicity (MTT) against BJ cell line; type: cell-based; settings: for L. tropica SI (CC50/ IC50): CC50 BJ cell line / IC50 L. tropica; for IC50: Homo sapiens, Fibroblast, read-out: BJ (human fibroblast) IC50 (μM± SD)
Protocol: (§1) The cytotoxicity of the test compounds against normal cell lines was evaluated through MTT (3-[4, 5-dimethylthiazole-2-yl]-2, 5-diphenyl-tetrazolium bromide] colorimetric assay in 96-well flat-bottomed microplates. The 3T3 (mouse fibroblast) and BJ (human fibroblast) were cultured Dulbecco’s Modified Eagle Medium, supplemented with 5% of fetal bovine serum (FBS), 100 IU/mL of penicillin and 100 μg/mL of streptomycin in 75 cm2 flasks, and then incubated in 5% CO2 incubator at 37°C. The growing cells were counted by using a haemocytometer, and diluted with the particular medium. The 5x10^4 cells/mL of the cell culture was prepared, and a sample […] was introduced into each well. […] After 48 hours, 200 μL MTT (0.5 mg/mL) was added, and the incubation was further continued for 4 hrs. After that time, 100 μL of DMSO was added to each well. The absorbance was measured using a micro plate reader (Spectra Max Plus, Molecular Devices, CA, USA) at 570 nm for the extent of MTT reduction to formazan within the cells. The cytotoxicity was recorded as CC50 against cells by using Soft- Max Pro software. Doxorubicin and cycloheximide were used as positive control. The experiments were run in triplicate.

[2] = Cytotoxicity (MTT) against BJ cell line; type: cell-based, human; settings: pure compounds; human fibroblast, 48 h; read-out: BJ cell line CC50 (μM± SD)
Protocol: as §1

[3] = test system: MIL-resistant L. tropica promastigotes; experiment: Growth inhibition assay (MTT) against MIL-resistant line; type: cell-based, Leishmania tropica; settings: miltefosine-unresponsive strain, promastigotes, 72 h
Protocol: (§2) The promastigotes in their log phase were used in 96-well plates. 1 × 10^6 wild-type and resistant promastigotes were dispensed in 96 96-well plates, and incubated with tested compounds at a range concentration of 200–10 μM at 27°C for 72 h. After incubation of 72 h, MTT dye (3-(4,5-dimethylthiazol-2-yl)-2,5-diphenyl-2H-tetrazolium bromide) was added and further incubate it for 3–4 h. Amphotericin B, pantamidine and miltefosine were used as the positive control, untreated promastigotes were used as negative control moreover DMSO control was also added in the study as a stock solution of the compounds that were prepared in DMSO. All the experiments were performed in triplicates. After completion of the experiment the absorbance by Multiskan ascent plate reader at 452 nm and percent inhibition was calculated by the following formula.
(§3) Cytotoxic concentration (%) = [100- (Absorbance of test)/ (Absorbance of solvent control) ×100] %.
Promastigote cultures tL. tropica (Clinical isolates) were maintained at 26°C in RPMI-1640 medium containing 15% FBS and 1% penicillin–streptomycin mixture.
Generation of miltefosine-unresponsive strain was carried under high MIL pressure by in vitro passage with a stepwise increase in the MIL concentration. At each step, parasites were cultured and passaged every 3–4 days at an initial concentration of 5x10^5 promastigotes/mL in order to achieve -stable growth as compared to the wildtype isolate. Growth rates were measured for resistant populations and compared with the WT strain. Parasites were counted at an initial concentration of 5x10^5 parasites/mL and growth was measured daily using a Neubauer chamber until the population reached the stationary phase. Furthermore, the fluorescence microscopic investigations via DAPI stain were also carried out to supplement the study.

[4] = test system: L. tropica promastigotes; experiment: Promastigote growth inhibition assay (MTT), L. tropica clinical isolates; type: cell-based, Leishmania tropica; settings: for IC50: Leishmania tropica, 72 h, read-out: L. tropica IC50 (μM± SD)
Protocol: (§4) L. major and L. tropica (Clinical isolates) promastigotes were grown at […] in RPMI-1640 (Sigma) medium containing 10% of heat-inactivated (56°C for 30 min) fetal bovine serum. Cell viability was initially evaluated by wet mount method by observing the live cells under compound microscope. Parasite growth was assessed by counting live / motile promastigotes in a Neubauer chamber. Viable cell count was used for the further experimentations (treatments).
as §2, §3

[5] = test system: 3T3 (mouse fibroblast) cells; experiment: Cytotoxicity (MTT) against 3T3 cell line; type: cell-based; settings: for L. tropica SI (CC50/ IC50): CC50 3T3 cell line / IC50 L. tropica; for IC50: Mus musculus, Fibroblast, read-out: 3T3 (mouse fibroblast) IC50 (μM ± SD)
Protocol: (§5) The cytotoxicity of the test compounds against normal cell lines was evaluated through MTT (3-[4, 5-dimethylthiazole-2-yl]-2, 5-diphenyl-tetrazolium bromide] colorimetric assay in 96-well flat-bottomed microplates. The 3T3 (mouse fibroblast) and BJ (human fibroblast) were cultured Dulbecco’s Modified Eagle Medium, supplemented with 5% of fetal bovine serum (FBS), 100 IU/mL of penicillin and 100 μg/mL of streptomycin in 75 cm2 flasks, and then incubated in 5% CO2 incubator at 37°C. The growing cells were counted by using a haemocytometer, and diluted with the particular medium. The 5x10^4 cells/mL of the cell culture was prepared, and a sample […] was introduced into each well. The medium was removed after overnight incubation, and 200 μL of fresh medium was added with different concentrations of compounds (1–30 μM). After 48 hours, 200 μL MTT (0.5 mg/mL) was added, and the incubation was further continued for 4 hrs. After that time, 100 μL of DMSO was added to each well. The absorbance was measured using a micro plate reader (Spectra Max Plus, Molecular Devices, CA, USA) at 570 nm for the extent of MTT reduction to formazan within the cells. The cytotoxicity was recorded as CC50 against cells by using Soft- Max Pro software. Doxorubicin and cycloheximide were used as positive control. The experiments were run in triplicate.

[6] = Cytotoxicity (MTT) against 3T3 cell line; type: cell-based, mouse; settings: pure compounds; mouse fibroblast, 48 h; read-out: 3T3 Cell line CC50 (μM± SD)
Protocol: as §5

[7] = test system: L. major promastigotes; experiment: Promastigote growth inhibition assay (MTT), L. major; type: cell-based, Leishmania major; settings: for IC50: Leishmania major, 72 h, read-out: L. major IC50 (μM± SD)
Protocol: as §4, §2, §3

[8] = test system: 3T3 (mouse fibroblast) cells; experiment: Cytotoxicity (MTT) against 3T3 cell line; type: cell-based; settings: cytotoxicity of extracts and fractions, read-out: 3T3 (mouse fibroblast) IC50 (μg/ml ± SD)
[9] = test system: BJ (human fibroblast) cells; experiment: Cytotoxicity (MTT) against BJ cell line; type: cell-based; settings: cytotoxicity of extracts and fractions, read-out: BJ (human fibroblast) IC50 (μg/ml ± SD)
[10] = CC50 3T3 mouse fibroblast cell line / IC50 L. tropica
[11] = CC50 BJ fibroblast cell line / IC50 L. tropica
[12] = CC50 3T3 mouse fibroblast cell line / IC50 L. major
[13] = CC50 BJ fibroblast cell line / IC50 L. major

| Compound | L. tropica SI (CC50/ IC50) [1] | MIL Resistant L. tropica IC50 (μM± SD) [3] | L. tropica SI (CC50/ IC50) [4, 10] | L. tropica SI (CC50/ IC50) [4, 11] | L. tropica SI (CC50/ IC50) [5] | L. major SI (CC50/ IC50) [7, 12] | L. major SI (CC50/ IC50) [7, 13] | further results |
| --- | --- | --- | --- | --- | --- | --- | --- | --- |
| CC12CC3OC(=O)C1COC14OC5(C2C1=O)C(O)(CCC1C4CC2OC24CC=CC(=O)C14C)C(=O)OC35C (stereo not drawn) [Compound 3, 5β, 6β-epoxyphysalin B] | 1.48 | inactive | 0.038 | 1.48 | 0.038 | 0.19 | 7.34 | IC50 [1]: 10.8 ± 1.5 µM; CC50 at 48 h [2]: 27.6 µM; IC50 [4]: 18.5 ± 0.28 µM; IC50 [5]: 0.72 ± 0.5 µM; CC50 at 48 h [6]: 0.72 ± 0.5 µM; IC50 [7]: 3.76 ± 0.85 µM |
| COc1cccc2c1C(=O)c1c(O)c3c(c(O)c1C2=O)C[C@@](O)(C(=O)CO)C[C@@H]3O[C@H]1C[C@H](N)[C@H](O)[C@H](C)O1 [Doxorubicin] |  |  |  |  |  |  |  | IC50 [8]: 0.1 ± 0.02 µg/mL (≈ 0.184 µM); IC50 [9]: 0.1 ± 0.02 µg/mL (≈ 0.184 µM) |
| CC12CC3OC(=O)C1COC14OC5(C2C1=O)C(O)(CCC1C4CC(O)C2(Cl)CC=CC(=O)C12C)C(=O)OC35C (stereo not shown) [Compound 5, Physalin H] | 1.08 | inactive | 0.041 | 1.08 | 0.041 | 0.119 | 3.11 | IC50 ([1]; cytotoxicity of compounds 1-9): 14.2 ± 0.8 µM; CC50 [2]: 10.4 ± 1 µM; IC50 ([4]; pure compounds, standard drugs, promastigotes, clinical isolate): 9.59 ± 0.27 µM; IC50 ([5]; cytotoxicity of compounds 1-9): 0.4 ± 0.07 µM; CC50 [6]: 0.4 ± 0.07 µM; IC50 ([7]; pure compounds, standard drugs, promastigotes): 3.34 ± 0.64 µM |
